Here are results for 1 compound from patent publication US20060013794A1, “Cosmetic or pharmaceutical composition comprising peptides with the sequences arggly-ser” (priority 2002, published 2006).

This series deals with HaCat human keratinocytes. The experiment in a line: Cell differentiation, immunofluorescence with anti-ERG 1-2 antibodies. It is filed as cell-based. As to conditions: at 24 hours.

Where a SMILES comes first, the peptide text is derived from it.

With `N=C(N)NCCC[C@H](N)C(=O)NCC(=O)N[C@@H](CO)C(=O)O` [Arg-Gly-Ser] (H-Arg-Gly-Ser-OH), the “quantity of ERG molecules present in the cells (fluorescence intensity, cell differentiation marker)” value is listed as “increases”.
